In US20240293558A1, “KRAS INHIBITOR CONJUGATES” (Erasca, Inc., priority 2021, published 2024) one finds IC50 data, which are given here for one compound.

One test deals with KRAS G12D (Homo sapiens, UniProt P01116, G12D). The experiment in a line: In-vitro RAS-RAF binding assay (RRB), HTRF/FRET. In kind it is biochemical. Also noted: Biotinylated KRAS protein amino acids 1-169 (produced at Erasca); made in house. The note with it: Table 2, average of multiple runs of each compound; read-out: Inhibition of RAS-RAF Binding (in-vitro) KRAS (G12D) IC50. An outline of the steps: (§1)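 Biotinylated KRAS 1-169 (streptavidin-terbium donor, 30 nM) and GST-cRAF RBD (anti-GST d2 acceptor, 30 nM) in HEPES pH 7.5, NaCl, MgCl2, DTT buffer. After compound incubation, SOS1 catalytic domain plus GTPgS drive 60 min nucleotide exchange. HTRF FRET read at equilibrium, in duplicate.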
Chain of KRAS G12D (P01116 1-169 isoform P01116-2 G12D): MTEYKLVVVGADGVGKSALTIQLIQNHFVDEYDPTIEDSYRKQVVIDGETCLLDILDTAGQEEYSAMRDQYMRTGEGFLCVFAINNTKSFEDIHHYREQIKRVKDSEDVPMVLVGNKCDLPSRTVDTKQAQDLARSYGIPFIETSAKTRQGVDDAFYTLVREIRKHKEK

The target in another test is T1, KRAS (WT) (Homo sapiens, UniProt P01116).
T1 construct: Biotinylated KRAS protein amino acids 1-169 (produced at Erasca); made in house
T1 sequence (P01116 1-169 isoform P01116-2): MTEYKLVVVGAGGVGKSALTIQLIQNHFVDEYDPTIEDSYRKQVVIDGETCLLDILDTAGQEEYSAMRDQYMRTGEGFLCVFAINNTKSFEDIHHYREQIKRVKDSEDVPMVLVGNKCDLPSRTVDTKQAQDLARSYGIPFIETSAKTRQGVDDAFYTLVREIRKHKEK
The test can be described thus: In-vitro RAS-RAF binding assay (RRB), HTRF/FRET. In kind it is biochemical. The settings on record: Table 2, average of multiple runs of each compound; read-out: Inhibition of RAS-RAF Binding (in-vitro) KRAS (WT) IC50. The method in brief: as §1

On to `C#Cc1c(F)ccc2cc(O)cc(-c3ncc4c(N5CC6CCC(C5)N6)nc(OC[C@@H]5CCCN5CCCOCCC(=O)N[C@H](C(=O)N5C[C@H](O)C[C@H]5C(=O)N[C@@H](C)c5ccc(-c6cccnc6C(F)(F)F)cc5)C(C)(C)C)nc4c3F)c12` [Example 48, (2S,4R)-1-((2S)-2-(3-(3-((2S)-2-(((4-(3,8-diazabicyclo[3.2.1]octan-3-yl)-7-(8-ethynyl-7-fluoro-3-hydroxynaphthalen-1-yl)-8-fluoropyrido[4,3-d]pyrimidin-2-yl)oxy)methyl)pyrrolidin-1-yl)propoxy)propanamido)-3,3-dimethylbutanoyl)-4-hydroxy-N-((S)-1-(4-(2-(trifluoromethyl)pyridin-3-yl)phenyl)ethyl)pyrrolidine-2-carboxamide], for which the IC50 on KRAS G12D worked out at 7.53 nM; on KRAS (WT), 24.7 nM.
